Data taken from US20240181093A1 (ADENOBIO N.V, priority 2012, published 2024).
Where “and” joins values, the source holds several entries; their conditions need not be identical. Identical values can stand only once. Marks after values point to notes of the source that are not given here.

Assays:
coronary hyperaemia = conditions: cited from earlier work
patients = conditions: cited from earlier work
[1] = system: Left anterior descending coronary artery (LAD); assay: Transthoracic doppler echocardiography (TTDE) flow velocity measurements at rest and under pharmacologic stress; type: in vivo, human; conditions: for Average Optimal Effect Duration: combined with adenosine bolus
Source text: The value of absolute coronary blood flow (CBF) may be substituted by the value of CBF velocity (peak and mean velocities). […] Given that blood flow=velocity flow×cross section, if cross section is constant, velocity variations reflect blood flow variations.
TTDE is a non invasive approach conducted under the same conditions as for thallium or technetium scintigraphy (intravenous injection) and another way to study Coronary Flow Reserve (CFR).

[2] = Table 1: same coronary patient, 5 studies, second data of cell, adenosine 140 μg/kg/min 2 minute infusion, combination 30 second IV bolus
[3] = bolus independently of the patient's weight

Structure (SMILES): Nc1ncnc2c1ncn2[C@@H]1O[C@H](CO)[C@@H](O)[C@H]1O [Adenosine, adenosine]
- time to near-maximal vasodilatation, on average (coronary hyperaemia; infusion): 60 s
- adverse reaction: flushing (patients; adenosine infusion, most frequently reported): 44%
- Other side effects, incidence (patients; adenosine infusion): below 10%
- adverse reaction: chest pain or chest discomfort (patients; adenosine infusion): 40%
- adverse reaction: dyspnoea (patients; adenosine infusion): 28%
- adverse reaction: gastrointestinal discomfort (patients; adenosine infusion): 13%
- adverse reaction: headache (patients; adenosine infusion): 18%
- adverse reaction: throat or neck or jaw discomfort (patients; adenosine infusion): 15%
- DOE = Duration of optimal effect ([1]; Table 1: same coronary patient): 60 to 90 s
- RBL = Return to base line ([1]; Table 1: same coronary patient): 40 to 50 s
- TTP = Time to peak ([1]; Table 1: same coronary patient): 40 to 50 s
- MV = Mean Velocity, under stress conditions [1, 2]: 78 cm/s and 80 cm/s and 82 cm/s and 75 cm/s and 74 cm/s
- PV = Peak Velocity, under stress conditions [1, 2]: 108 cm/sec and 96 cm/sec and 98 cm/sec and 105 cm/sec
- CR (based on MV) ([1]; Table 2: three different coronary patients, one line per patient, listed as St. Adenosine): 2.12 and 2.36 and 2.88
- MV (mean velocity), under stress conditions ([1]; Table 2: three different coronary patients, one line per patient, second data of cell, St. adenosine 140 μg/kg/min infusion about 2 minutes, combination IV 30 second bolus): 50 cm/s and 33 cm/s and 75 cm/s

Structure (SMILES): OCCN(CCO)c1nc(N2CCCCC2)c2nc(N(CCO)CCO)nc(N3CCCCC3)c2n1 [Dipyridamole, dipyridamole]
- duration of peak of activity (coronary hyperaemia; in vivo): 20 to 30 min
- Average Optimal Effect Duration ([1]; Dipyridamole dose 9 mg, regardless of the dose of adenosine): 30 to 40 s
- Average Optimal Effect Duration ([1]; Dipyridamole dose 10 mg, regardless of the dose of adenosine): 40 to 50 s
- Average Optimal Effect Duration ([1]; Dipyridamole dose 12 mg, regardless of the dose of adenosine): 40 to 90 s
- Average Optimal Effect Duration ([1]; Dipyridamole dose 14 mg, prolongs side effects when they occur): 60-100** sec
- coronary effect and side effect ([1]; alone as a 12 mg or 14 mg bolus): no coronary effect and no side effect
- coronary effect or symptom ([1]; injected as a bolus alone at the dose of 12 mg (n=5 patients)): does not induce any significant coronary effect or symptom

Structure (SMILES): Nc1nc(N/N=C/C2CCCCC2)nc2c1ncn2[C@@H]1O[C@H](CO)[C@@H](O)[C@H]1O [binodenoson]
- duration of action (coronary hyperaemia; in vivo): 10 ± 6 min

Structure (SMILES): CNC(=O)c1cnn(-c2nc(N)c3ncn([C@@H]4O[C@H](CO)[C@@H](O)[C@H]4O)c3n2)c1 [regadenoson]
- efficacy and tolerance at 500 μg (coronary hyperaemia; [3]): same efficacy as 400 μg but tolerance is worst
- efficacy threshold dose in many but not all patients (coronary hyperaemia; [3]): 300 µg
- dose efficient in all patients (coronary hyperaemia; bolus independently of the patient's weight, marketed dose): 400 µg
- time after which coronary hyperaemia is induced (coronary hyperaemia; in vivo): 30 s
- side effects as compared to the reference drug Adenoscan (adenosine) (patients; in vivo): increase in dyspnea, headache and gastrointestinal disorders
